Key:
[1] = logP determination by HPLC on a reversed-phase column (C18); assay type: physicochemical; conditions: for logP^a): HPLC-MS method a); for log P: HPLC-MS
Boophilus microplus = Boophilus microplus - injection test; assay type: in vivo; conditions: application rate 20 μg/animal, injection into engorged adult female ticks, after 7 days
Description: (§1) Solvent: dimethyl sulphoxide
To produce an appropriate active ingredient formulation, 10 mg of active ingredient are mixed with 0.5 ml of solvent and the concentrate is diluted with solvent to the desired concentration.
1 μl of the active ingredient solution is injected into the abdomen of 5 engorged adult female cattle ticks (Boophilus microplus). The animals are transferred into dishes and kept in a climate-controlled room.
Efficacy is assessed after 7 days by laying of fertile eggs. Eggs which are not visibly fertile are stored in a climate-controlled cabinet until the larvae hatch after about 42 days. An efficacy of 100% means that none of the ticks has laid any fertile eggs; 0% means that all the eggs are fertile.

Lucilia cuprina = Lucilia cuprina test; assay type: in vivo; conditions: application rate 100 ppm; L1 larvae; after 2 days
Description: as §1
(§2) To produce an appropriate active ingredient formulation, 10 mg of active ingredient are mixed with 0.5 ml of dimethyl sulphoxide, and the concentrate is diluted with water to the desired concentration.
About 20 L1 larvae of the Australian sheep blowfly (Lucilia cuprina) are transferred into a test vessel containing minced horsemeat and the active ingredient preparation of the desired concentration.
After 2 days, the kill in % is determined. 100% means that all the larvae have been killed; 0% means that none of the larvae have been killed.

Spodoptera frugiperda = Spodoptera frugiperda - spray test; assay type: in vivo; conditions: caterpillars on maize leaf discs, after 7 days
Description: (§3) Solvent: 78.0 parts by weight of acetone and 1.5 parts by weight of dimethylformamide
(§4) Emulsifier: alkylaryl polyglycol ether
(§5) To produce an appropriate active ingredient formulation, 1 part by weight of active ingredient is dissolved using the specified parts by weight of solvent and made up with water containing an emulsifier concentration of 1000 ppm until the desired concentration is attained. To produce further test concentrations, the preparation is diluted with emulsifier-containing water.
Leaf discs of maize (Zea mays) are sprayed with an active ingredient formulation of the desired concentration and, after drying, populated with caterpillars of the armyworm (Spodoptera frugiperda).
After 7 days, efficacy in % is determined. 100% means that all the caterpillars have been killed; 0% means that no caterpillars have been killed.

Phaedon cochleariae = Phaedon cochleariae - spray test; assay type: in vivo; conditions: larvae on Chinese cabbage leaf discs, after 7 days
Outline: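 Chinese cabbage leaf discs sprayed with compound formulated in acetone/DMF and water containing 1000 ppm emulsifier; once dry, infested with mustard beetle larvae. Efficacy (% larvae killed) scored after 7 days.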

Musca domestica = Musca domestica test; assay type: in vivo; conditions: adult houseflies, after 2 days
Description: as §1, §2
Vessels containing a sponge treated with sugar solution and the active ingredient formulation of the desired concentration are populated with 10 adult houseflies (Musca domestica).
After 2 days, the kill in % is determined. 100% means that all of the flies have been killed; 0% means that none of the flies have been killed.

Tetranychus urticae = Tetranychus urticae - spray test, OP-resistant; assay type: in vivo; conditions: bean leaf discs, after 6 days
Description: as §3, §4, §5
Discs of bean leaves (Phaseolus vulgaris) infested by all stages of the greenhouse red spider mite (Tetranychus urticae) are sprayed with an active ingredient formulation of the desired concentration.
After 6 days, efficacy in % is determined. 100% means that all the spider mites have been killed; 0% means that none of the spider mites have been killed.

Ctenocephalides felis = Ctenocephalides felis - oral test; assay type: in vivo; conditions: application rate 100 ppm in citrated cattle blood; after 2 days
Description: as §1
For the purpose of producing an appropriate active ingredient formulation, 10 mg of active ingredient are mixed with 0.5 ml of dimethyl sulphoxide. Dilution with citrated cattle blood gives the desired concentration.
About 20 unfed adult cat fleas (Ctenocephalides felis) are placed into a chamber which is closed at the top and bottom with gauze. A metal cylinder whose bottom end is closed with parafilm is placed onto the chamber. The cylinder contains the blood/active ingredient preparation, which can be imbibed by the fleas through the parafilm membrane.
After 2 days, the kill in % is determined. 100% means that all of the fleas have been killed; 0% means that none of the fleas have been killed.

[2] = reversed-phase column (C18), Table I-T3

Row | SMILES | logP^a) [1] | logP^a) [1, 2] | efficacy (laying of fertile eggs) (Boophilus microplus) | efficacy (kill) (Lucilia cuprina) | efficacy (Spodoptera frugiperda; application rate 100 g/ha) | efficacy (Phaedon cochleariae; application rate 100 g/ha) | efficacy (kill) (Musca domestica; application rate 100 ppm) | efficacy (Tetranychus urticae; application rate 100 g/ha) | efficacy (kill) (Ctenocephalides felis) | efficacy (Spodoptera frugiperda; application rate 500 g/ha) | efficacy (Phaedon cochleariae; application rate 500 g/ha) | efficacy (Tetranychus urticae; application rate 500 g/ha) | efficacy (kill) (Musca domestica; application rate 4 ppm) | pest or weed control at 0.02 mg (Boophilus microplus; Rhipicephalus microplus, 168 h, read-out: efficacy (laying of fertile eggs)) | logP^a) ([1]; reversed-phase column (C18)) | log P [1, 2]
1 | Cc1cc(C(F)(C(F)(F)F)C(F)(F)F)cc(C)c1-n1cc(-c2ccc(Cl)c(C(=O)NCC(F)(F)F)c2)cn1 [I-T3-2] | 4.7 | 4.7 | 100% | 100% | 100% | 100% | 100% | 100% | 100% |  |  |  |  |  |  | 
2 | Cc1cc(C(F)(C(F)(F)F)C(F)(F)F)cc(C)c1-n1cc(-c2ccc(Cl)c(C(=O)NC3CSC3)c2)cn1 [I-T3-4] | 4.7 | 4.7 | 100% | 100% | 100% | 100% | 100% | 100% | 100% |  |  |  |  |  |  | 
3 | Cc1cc(C(F)(C(F)(F)F)C(F)(F)F)cc(C)c1-n1cc(-c2ccc(Cl)c(C(=O)NC3(C(F)(F)F)CC3)c2)cn1 [I-T3-5] | 4.6 | 4.6 | 100% | 100% |  | 100% | 100% |  | 100% |  |  |  |  |  |  | 
4 | N#CC1(NC(=O)c2cc(-c3cnn(-c4ccc(C(F)(C(F)(F)F)C(F)(F)F)cc4OC(F)(F)F)c3)ccc2Cl)CC1 [I-T3-34] | 4.6 | 4.6 | 100% | 100% |  |  | 100% |  | 100% | 100% | 100% | 100% |  |  |  | 
5 | O=C(NC1CC1)c1cc(-c2cnn(-c3ccc(C(F)(C(F)(F)F)C(F)(F)F)cc3OC(F)(F)F)c2)ccc1Cl [I-T3-35] | 4.7 | 4.7 | 100% | 100% | 83% |  |  |  | 100% |  | 100% |  | 80% |  |  | 
6 | O=C(NCC(F)(F)F)c1cc(-c2cnn(-c3c(Cl)cc(C(F)(C(F)(F)F)C(F)(F)F)cc3C(F)(F)F)c2)ccc1Cl [I-T3-58] | 4.7 | 4.7 | 100% | 100% | 100% | 100% | 100% | 100% | 100% |  |  |  |  |  |  | 
7 | N#CC1(NC(=O)c2cc(-c3cnn(-c4c(F)cc(C(F)(C(F)(F)F)C(F)(F)F)cc4F)c3)ccc2Cl)CC1 [I-T3-62] | 3.9 | 3.9 | 100% | 100% | 100% | 100% | 100% | 100% | 100% |  |  |  |  |  |  | 
8 | Cc1cc(C(F)(C(F)(F)F)C(F)(F)F)cc(C)c1-n1cc(-c2ccc(Cl)c(C(=O)NC3(C#N)CC3)c2F)cn1 [I-T3-65] | 4.4 | 4.3 | 100% | 100% |  |  | 100% |  | 100% | 100% | 100% | 90% |  |  |  | 
9 | CCc1cc(C(F)(C(F)(F)F)C(F)(F)F)cc(C)c1-n1cc(-c2ccc(Cl)c(C(=O)NC3(C#N)CC3)c2F)cn1 [I-T3-66] | 4.6 | 4.6 | 100% | 100% |  |  | 80% |  | 100% | 100% | 100% |  |  |  |  | 
10 | CCc1cc(C(F)(C(F)(F)F)C(F)(F)F)cc(C)c1-n1cc(-c2ccc(Cl)c(C(=O)NC3CC3)c2F)cn1 [I-T3-68] | 4.6 | 4.8 | 100% | 100% |  |  | 80% |  | 100% | 100% | 100% |  |  |  |  | 
11 | O=C(NC1CC1)c1c(Cl)ccc(-c2cnn(-c3c(Cl)cc(C(F)(C(F)(F)F)C(F)(F)F)cc3Cl)c2)c1F [I-T3-73] | 4.5 | 4.5 | 100% | 100% |  |  | 100% | 100% | 100% | 100% | 100% |  |  |  |  | 
12 | CCc1cc(C(F)(C(F)(F)F)C(F)(F)F)ccc1-n1cc(-c2cncc(C(=O)NC3CC3)c2)cn1 [I-T3-79] | 3.3 | 3.3 | 100% | 80% |  |  | 80% |  | 95% | 100% | 100% |  |  |  |  | 
13 | CCc1cc(C(F)(F)C(F)(F)F)cc(C)c1-n1cc(-c2ccc(Cl)c(C(=O)NCC(F)(F)F)c2)cn1 [I-T3-82] | 4.0 | 4.0 | 100% | 100% | 100% | 100% |  | 100% | 95% |  |  |  |  |  |  | 
14 | CCc1cc(C(F)(F)C(F)(F)F)cc(C)c1-n1cc(-c2ccc(Cl)c(C(=O)NC3CSC3)c2)cn1 [I-T3-83] | 4.6 | 4.6 | 100% | 100% | 100% | 100% |  | 100% | 95% |  |  |  |  |  |  | 
15 | Cc1cc(C(F)(C(F)(F)F)C(F)(F)F)cc(C)c1-n1cc(-c2ncc(Cl)c(C(=O)NC3CC3)n2)cn1 [I-T3-121, 5-chloro-N-cyclopropyl-2-[1-[2,6-dimethyl-4-[1,2,2,2-tetrafluoro-1-(trifluoromethyl)ethyl]phenyl]pyrazol-4-yl]pyrimidine-4-carboxamide] |  |  |  |  |  |  | 80% |  |  |  |  |  |  | 80% |  | 
16 | COc1ncc(-c2cnn(-c3c(C)cc(C(F)(C(F)(F)F)C(F)(F)F)cc3C)c2)cc1C(=O)N(C)C1CC1 [I-T3-144] |  |  | 100% | 100% |  | 100% | 100% |  | 90% |  |  |  |  |  | 4.4 | 4.4
17 | N#CC1(NC(=O)c2cc(-c3cnn(-c4ncc(C(F)(F)F)cc4C(F)(F)F)c3)ccc2Cl)CC1 [I-T3-149] |  |  | 100% | 100% |  | 100% | 100% |  | 100% |  |  |  |  |  | 3.5 | 3.5
18 | O=C(NC1CC1)c1cc(-c2cnn(-c3ncc(C(F)(F)F)cc3C(F)(F)F)c2)ccc1Cl [I-T3-150] |  |  | 100% | 100% |  |  | 100% |  | 100% |  |  |  |  |  | 3.6 | 3.6

Reference: patent US10150737B2, “Compounds for controlling arthropods” (priority 2013, dated 2018)
